Source: the NIST ThermoML archive (doi:10.1021/je900093h)

Assay: molar heat capacity at saturation pressure
Conditions: Vacuum adiabatic calorimetry

CCCCCCCCCC(=O)OCC [ethyl decanoate]
Conditions	molar heat capacity [J/K/mol]
204.7 K, Crystal	251.8
205.19 K, Crystal	252
205.24 K, Crystal	252.1
205.57 K, Crystal	252.3
206.25 K, Crystal	253.2
206.66 K, Crystal	253.6
207.14 K, Crystal	254
207.19 K, Crystal	254
207.62 K, Crystal	254.3
208.2 K, Crystal	255.2
208.63 K, Crystal	255.4
209.09 K, Crystal	255.7
209.14 K, Crystal	255.7
209.67 K, Crystal	256.4
210.15 K, Crystal	257
210.59 K, Crystal	257.3
211.04 K, Crystal	257.6
211.09 K, Crystal	257.8
211.71 K, Crystal	258.4
212.1 K, Crystal	259
212.56 K, Crystal	259.1
212.98 K, Crystal	259.7
213.04 K, Crystal	259.7
213.75 K, Crystal	260.3
214.05 K, Crystal	261
214.52 K, Crystal	261.2
214.93 K, Crystal	261.7
214.99 K, Crystal	261.6
215.78 K, Crystal	262.5
215.99 K, Crystal	263.2
216.49 K, Crystal	263.3
216.87 K, Crystal	263.9
216.93 K, Crystal	263.7
217.81 K, Crystal	264.8
217.93 K, Crystal	265.3
218.46 K, Crystal	265.4
218.81 K, Crystal	266.1
218.87 K, Crystal	265.9
219.84 K, Crystal	267.1
219.87 K, Crystal	267.5
220.42 K, Crystal	267.6
220.75 K, Crystal	268.4
220.81 K, Crystal	268.3
221.82 K, Crystal	269.7
221.86 K, Crystal	269.6
222.39 K, Crystal	270
222.68 K, Crystal	270.8
222.75 K, Crystal	270.5
223.76 K, Crystal	272.3
223.88 K, Crystal	272.1
224.36 K, Crystal	272.5
224.61 K, Crystal	273.3
224.69 K, Crystal	272.9
225.69 K, Crystal	274.9
225.89 K, Crystal	274.9
226.33 K, Crystal	275.1
226.54 K, Crystal	276.1
226.62 K, Crystal	275.6
227.62 K, Crystal	277.6
227.9 K, Crystal	277.8
228.29 K, Crystal	277.8
228.46 K, Crystal	278.4
228.54 K, Crystal	278.3
229.55 K, Crystal	280.1
229.89 K, Crystal	280.6
230.26 K, Crystal	280.8
230.47 K, Crystal	280.9
232.23 K, Crystal	284
232.58 K, Crystal	284.3
234.19 K, Crystal	287.3
234.97 K, Crystal	289
236.16 K, Crystal	291.1
237.29 K, Crystal	294.1
238.11 K, Crystal	296.8
239.59 K, Crystal	301
240.07 K, Crystal	303
241.85 K, Crystal	310.4
244.07 K, Crystal	325.4
246.21 K, Crystal	353.6
254.4 K, Liquid	386.7
255.37 K, Liquid	387
256.65 K, Liquid	387.2
257.1 K, Liquid	387.4
257.94 K, Liquid	387.5
258.76 K, Liquid	387.7
259.18 K, Liquid	387.9
260.12 K, Liquid	388.2
260.59 K, Liquid	388.3
261.71 K, Liquid	388.7
262.29 K, Liquid	388.9
262.56 K, Liquid	388.9
264.24 K, Liquid	389.3
264.47 K, Liquid	389.5
264.54 K, Liquid	389.4
266.52 K, Liquid	390
266.65 K, Liquid	390.1
266.77 K, Liquid	390.1
268.5 K, Liquid	390.8
268.83 K, Liquid	390.8
269.31 K, Liquid	391
270.48 K, Liquid	391.6
271.01 K, Liquid	391.6
271.84 K, Liquid	391.9
272.46 K, Liquid	392.3
273.19 K, Liquid	392.4
274.38 K, Liquid	392.9
274.44 K, Liquid	393
275.37 K, Liquid	393.2
276.42 K, Liquid	393.8
276.91 K, Liquid	394
277.55 K, Liquid	394.1
278.4 K, Liquid	394.5
279.45 K, Liquid	394.9
279.73 K, Liquid	394.9
280.38 K, Liquid	395.3
281.91 K, Liquid	396
281.98 K, Liquid	396.1
282.36 K, Liquid	396.2
284.09 K, Liquid	396.8
284.34 K, Liquid	397.1
284.52 K, Liquid	397.2
286.27 K, Liquid	397.8
286.32 K, Liquid	397.8
287.05 K, Liquid	398.3
288.3 K, Liquid	398.7
288.45 K, Liquid	398.8
289.59 K, Liquid	399.4
290.28 K, Liquid	399.7
290.63 K, Liquid	399.9
292.13 K, Liquid	400.5
292.26 K, Liquid	400.7
292.81 K, Liquid	401
294.23 K, Liquid	401.6
294.66 K, Liquid	401.8
294.99 K, Liquid	401.9
296.21 K, Liquid	402.5
297.17 K, Liquid	403.1
297.19 K, Liquid	403
298.19 K, Liquid	403.4
299.72 K, Liquid	404.3
300.16 K, Liquid	404.4
302.14 K, Liquid	405.5
302.25 K, Liquid	405.6
304.12 K, Liquid	406.5
304.78 K, Liquid	406.9
306.09 K, Liquid	407.7
307.31 K, Liquid	408.3
308.07 K, Liquid	408.7
309.83 K, Liquid	409.6
310.05 K, Liquid	409.6
312.02 K, Liquid	410.7
312.36 K, Liquid	411
314 K, Liquid	411.8
314.88 K, Liquid	412.3
315.98 K, Liquid	412.8
317.41 K, Liquid	413.8
317.96 K, Liquid	414
319.93 K, Liquid	415
319.94 K, Liquid	415
321.92 K, Liquid	416.3
322.45 K, Liquid	416.4
323.9 K, Liquid	417.2
324.96 K, Liquid	417.7
325.88 K, Liquid	418.2
327.48 K, Liquid	419.3
327.86 K, Liquid	419.2
329.84 K, Liquid	420.3
330 K, Liquid	420.6
331.82 K, Liquid	421.5
332.51 K, Liquid	422
333.8 K, Liquid	422.7
335.02 K, Liquid	423.5
335.78 K, Liquid	424
337.54 K, Liquid	424.9
337.76 K, Liquid	425.1
339.74 K, Liquid	426.2
340.05 K, Liquid	426.4
341.72 K, Liquid	427.3
342.56 K, Liquid	428
343.7 K, Liquid	428.7
345.06 K, Liquid	429.5
345.68 K, Liquid	429.8
347.57 K, Liquid	430.9
347.66 K, Liquid	431
349.64 K, Liquid	432.2
350.07 K, Liquid	432.4
351.62 K, Liquid	433.3
352.57 K, Liquid	433.9
353.61 K, Liquid	434.3
355.06 K, Liquid	435.2
355.59 K, Liquid	435.6
357.56 K, Liquid	436.8
357.57 K, Liquid	436.8
359.55 K, Liquid	438
360.05 K, Liquid	438.2
362.54 K, Liquid	439.8
365.03 K, Liquid	441.4
367.52 K, Liquid	443
